Measured values published in patent US20110144281A1, “AMPHIPHILIC POLYMERS HAVING A CHOLANE CORE” (VALORISATION-RECHERCHE, SOCIETE EN COMMANDITE, priority 2007, published 2011).

Columns and labels:
[1] = Loading of a drug: solubilisation of ibuprofen in water; type: physicochemical; settings: after vigorous agitation
[2] = literature (Reis et al. 2004); cited from earlier work
[3] = TEM of aggregates (freeze-fracture etching); type: physicochemical; settings: TEM images; sodium cholate at 0.040 molal, CA-PEG4 above CAC
Experimental: For transmission electron microscopy (TEM), different sample concentrations were prepared in milli-Q water for freeze-fracture. A small amount of these solutions were dropped onto a good sample carrier, and then frozen in liquid propane. The frozen samples were then mounted on the sample holder of a BAL-TEC freeze etching instrument (model BAF060). Samples were then fractured, let sublimate for less than 30 seconds before the newly created surface was coated from an angle of 45° (shadowed) with 2 nm of platinum-doped carbon. A 10 nm layer of carbon was then applied perpendicularly. The samples were placed in distilled water to make the platinum-carbon replica float on the water surface. They were then deposited on carbon-coated copper grids. The replicas were examined on a JEOL JEM-2000FX TEM operating at an acceleration voltage of 80 kV.
TEM images of the star polymers shown in FIG. 8 provide unequivocal evidence for the formation of micellar aggregates.

SMILES | solubility in neutral water [1] | CAC of sodium cholate [2] | shape of aggregates [3]
CC(C)Cc1ccc(C(C)C(=O)O)cc1 (stereo not drawn) [Ibuprofen] | very limited |  | 
C[C@H](CCC(=O)[O-])[C@H]1CC[C@H]2[C@@H]3[C@H](O)C[C@@H]4C[C@H](O)CC[C@]4(C)[C@H]3C[C@H](O)[C@]12C.[Na+] [sodium cholate] |  | 8 millimolal | cylindrical
